# Test results as given in US20240238426A1, “PROTEIN ACYLATION MODULATION BY HETEROBIFUNCTIONAL MOLECULES” (THE SCRIPPS RESEARCH INSTITUTE, priority 2021, published 2024).
# Tests used:
# [1] = test system: p21 (CDKNIA), PUMA, MDM2, and GLS2; assay: Immunoblot of p53 target gene expression in FKBP12^F36V-p53 H1299 cells; assay type: cell-based, Human; settings: 8 hr; for effect of co-treatment on AceTAG-1 induced p21 expression: 3 μM AceTAG-1 with 10 μM A485 or 50 μM FKBP12^F36V-binding ligand, FIG. 7E
# Method: (§1) Immunoblotting: Cells were harvested in cold DPBS by scraping and washed with cold DPBS twice. Cell pellets were resuspended in DPBS supplemented with 5 mM sodium butyrate, 20 mM Nicotinamide, and 1X Halt Protease Inhibitor Cocktail and lysed by sonication (15 ms on, 40 ms off, 15% amplitude, 1s total on x 3). Protein concentration was determined using DC Protein Assay (Bio-Rad) and absorbance read using a CLARIOstar plate reader following manufacturer's instructions. Samples with equal protein content were boiled in 4X SDS gel loading buffer for 10 min. Proteins were separated by 10%, 12.5%, or 15% SDS-polyacrylamide gel electrophoresis and transferred to PVDF membranes using Trans-Blot Turbo RTA Mini […] LF PVDF Transfer Kit (Bio-Rad). Membranes were incubated for 1 h at room temperature with blocking buffer, followed by incubating overnight at 4° C. with primary antibodies. After washing in TBST, the secondary antibodies were incubated with the membranes at room temperature for 1 h. The membranes were washed with TBST for three times and visualized on a Bio-Rad ChemiDoc MP Imaging System with Clarity Max Western ECL substrate (Bio-Rad) or SuperSignal West Femto Chemiluminescent substrate proprietary luminol and peroxide solution kit (Thermo Scientific Pierce).
# [2] = target: T1, H3.3-FKBP12^F36V (Homo sapiens, UniProt P62942+Q09472, F37V); assay: Immunoblot analysis of H3.3-FKBP12^F36V acetylation in HeLa cells; assay type: cell-based; settings: for acetylation of H3.3: HeLa cells, FIG. 8
# T1 construct: expressed in transfected cells
# T1 sequence (P62942 2-108 F37V limits assumed): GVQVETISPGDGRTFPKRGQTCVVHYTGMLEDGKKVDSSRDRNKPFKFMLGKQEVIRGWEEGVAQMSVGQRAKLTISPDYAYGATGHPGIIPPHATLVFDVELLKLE
# T1 sequence (Q09472 2-2414 limits assumed, stated change not applied): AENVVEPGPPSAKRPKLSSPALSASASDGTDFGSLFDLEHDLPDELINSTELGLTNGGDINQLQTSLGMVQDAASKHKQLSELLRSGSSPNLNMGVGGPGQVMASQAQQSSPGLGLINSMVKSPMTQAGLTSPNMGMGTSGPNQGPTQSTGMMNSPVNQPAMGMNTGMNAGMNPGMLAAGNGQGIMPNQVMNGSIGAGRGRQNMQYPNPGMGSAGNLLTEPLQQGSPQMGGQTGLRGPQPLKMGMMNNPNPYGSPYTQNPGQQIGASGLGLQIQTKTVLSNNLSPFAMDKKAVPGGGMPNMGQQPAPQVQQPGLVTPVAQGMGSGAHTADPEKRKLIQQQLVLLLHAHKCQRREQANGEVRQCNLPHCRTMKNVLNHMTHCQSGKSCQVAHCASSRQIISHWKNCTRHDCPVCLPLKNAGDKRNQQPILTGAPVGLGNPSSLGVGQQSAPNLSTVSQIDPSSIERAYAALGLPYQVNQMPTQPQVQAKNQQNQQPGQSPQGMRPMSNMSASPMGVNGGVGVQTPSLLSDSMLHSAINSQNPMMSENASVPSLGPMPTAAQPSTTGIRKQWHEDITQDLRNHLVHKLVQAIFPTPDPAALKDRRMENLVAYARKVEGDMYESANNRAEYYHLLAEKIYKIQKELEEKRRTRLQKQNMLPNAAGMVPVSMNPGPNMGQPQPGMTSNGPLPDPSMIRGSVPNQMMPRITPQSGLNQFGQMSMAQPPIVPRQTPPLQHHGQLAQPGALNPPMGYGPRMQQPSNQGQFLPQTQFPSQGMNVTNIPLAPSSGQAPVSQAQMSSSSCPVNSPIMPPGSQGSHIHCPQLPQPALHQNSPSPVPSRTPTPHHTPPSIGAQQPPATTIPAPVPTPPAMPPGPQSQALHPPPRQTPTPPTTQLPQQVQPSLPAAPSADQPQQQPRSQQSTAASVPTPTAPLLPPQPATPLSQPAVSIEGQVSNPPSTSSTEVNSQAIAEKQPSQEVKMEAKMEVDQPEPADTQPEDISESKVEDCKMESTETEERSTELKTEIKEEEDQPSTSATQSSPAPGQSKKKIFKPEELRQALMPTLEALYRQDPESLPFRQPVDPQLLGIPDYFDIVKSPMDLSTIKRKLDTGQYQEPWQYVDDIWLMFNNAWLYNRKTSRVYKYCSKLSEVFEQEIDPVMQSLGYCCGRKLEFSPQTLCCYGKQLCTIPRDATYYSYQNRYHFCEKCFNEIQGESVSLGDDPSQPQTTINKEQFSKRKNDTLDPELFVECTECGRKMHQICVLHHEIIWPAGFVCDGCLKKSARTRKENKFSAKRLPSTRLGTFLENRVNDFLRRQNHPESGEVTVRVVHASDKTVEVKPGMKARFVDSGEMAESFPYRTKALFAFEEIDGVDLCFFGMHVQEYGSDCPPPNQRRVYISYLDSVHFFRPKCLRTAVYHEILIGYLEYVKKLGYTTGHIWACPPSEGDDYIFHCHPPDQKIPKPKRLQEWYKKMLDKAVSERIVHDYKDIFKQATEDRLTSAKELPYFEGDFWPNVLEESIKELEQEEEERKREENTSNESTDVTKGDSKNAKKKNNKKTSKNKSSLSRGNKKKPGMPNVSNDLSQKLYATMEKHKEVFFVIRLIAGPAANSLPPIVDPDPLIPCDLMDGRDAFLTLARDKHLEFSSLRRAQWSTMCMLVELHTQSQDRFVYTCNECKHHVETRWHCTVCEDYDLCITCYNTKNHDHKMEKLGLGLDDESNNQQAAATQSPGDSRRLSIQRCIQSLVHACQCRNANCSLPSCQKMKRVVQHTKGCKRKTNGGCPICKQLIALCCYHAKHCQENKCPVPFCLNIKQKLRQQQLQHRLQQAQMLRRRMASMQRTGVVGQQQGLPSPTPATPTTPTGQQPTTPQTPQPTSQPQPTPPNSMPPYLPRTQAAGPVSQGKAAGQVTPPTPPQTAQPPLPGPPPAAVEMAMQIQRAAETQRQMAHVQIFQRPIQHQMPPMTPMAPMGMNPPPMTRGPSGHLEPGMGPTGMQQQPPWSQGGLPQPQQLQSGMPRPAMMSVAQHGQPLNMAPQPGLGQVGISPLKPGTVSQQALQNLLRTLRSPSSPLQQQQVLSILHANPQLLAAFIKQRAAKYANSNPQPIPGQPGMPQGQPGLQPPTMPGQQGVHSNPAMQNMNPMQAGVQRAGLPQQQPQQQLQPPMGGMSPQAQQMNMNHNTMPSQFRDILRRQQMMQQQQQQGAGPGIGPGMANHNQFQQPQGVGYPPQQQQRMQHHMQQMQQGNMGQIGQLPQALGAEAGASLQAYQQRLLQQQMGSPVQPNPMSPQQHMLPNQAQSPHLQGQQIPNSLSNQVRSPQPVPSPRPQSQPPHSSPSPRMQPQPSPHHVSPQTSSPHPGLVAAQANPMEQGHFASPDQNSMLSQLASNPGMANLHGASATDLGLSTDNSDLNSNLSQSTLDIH
# Method: (§2) Lentivirus Production and Transduction: Lentiviral production was performed using HEK293T cells, which were co-transfected with pMD2.G (Addgene, #12259), psPAX2 (Addgene, #12260), and AceTAG lentiviral plasmids using PEI (Polysciences Inc). Viral particles were collected 72 h after transfection and filtered through a […] membrane. A range of dilutions of the lentivirus in DMEM complete and 10 μg/mL polybrene were added to HeLa, H1299, or HeLa RelA KO cell lines. Transduced cells were selected with 1 μg/mL or 2 μg/mL puromycin.
# as §1
# [3] = test system: T2, FKBP12^F36V-RelA (Homo sapiens, F37V); assay: Immunoblot analysis of FKBP12^F36V-RelA acetylation in RelA-/- HeLa cells; assay type: cell-based; settings: 625 nM AceTAG-1 with 50 μM FKBP ligand or 1 μM A485, 2 hr, FIG. 6B
# T2 construct: expressed in transfected cells
# T2 sequence (P62942 2-108 F37V limits assumed): as the sequence (P62942 2-108 F37V limits assumed) above
# T2 sequence (Q09472 2-2414 limits assumed, stated change not applied, further chain): as the sequence (Q09472 2-2414 limits assumed, stated change not applied) above
# Method: as §2, §1
# [4] = test system: T3, FKBP12^F36V-p53 (Homo sapiens, F37V); assay: Immunoblot analysis of FKBP12^F36V-p53 acetylation in H1299 cells; assay type: cell-based; settings: 625 nM AceTAG-1 with 50 μM FKBP ligand or 1 μM A485, 2 hr, FIG. 6D
# T3 construct: expressed in transfected cells
# T3 sequence (P62942 2-108 F37V limits assumed): as the sequence (P62942 2-108 F37V limits assumed) above
# T3 sequence (Q09472 2-2414 limits assumed, stated change not applied, further chain): as the sequence (Q09472 2-2414 limits assumed, stated change not applied) above
# Method: as §2, §1
# [5] = test system: H3.3-FKBP12^F36V HeLa cells; assay: Quantitative acetylproteomics of H3.3-FKBP12^F36V HeLa cells; assay type: cell-based, Human; settings: 2 μM SAHA, FIG. 5E
# Method: Sample preparation: Frozen cell pellets were thawed on ice and lysed in a buffer containing 50 mM Tris-HCl (pH 7.5), 150 mM NaCl, 1 mM EDTA, 1% NP-40, 0.1% sodium deoxycholate, 5 mM sodium butyrate, 10 mM nicotinamide and 1X Pierce™ protease inhibitor cocktail. Cells were sonicated to ensure complete lysis, mixed with 5 M NaCl at a ratio of 1:10 with sample volume and incubated on ice for 15 min to release chromatin-bound proteins. Cell lysates were then sonicated again to shear genomic DNA. Cellular debris was cleared by centrifugation at 16,000 g for 20 min at 4° C., protein concentration was determined using a Pierce™ BCA assay and ˜10 mg of protein was aliquoted for acetyl-proteomic analysis. Proteins were denatured with 8 M urea in 50 mM HEPES, reduced with 5 mM dithiothreitol for 30 min at 56° C., then alkylated with 5 mM iodoacetamide for 20 min in the dark at RT. Following alkylation, proteins were precipitated using chloroform-methanol as previously described, and protein pellets were dried at 56° C. for 15 min. Proteins pellets were resuspended in 1 M urea in 50 mM HEPES and digested in a two-step process with LysC and trypsin as previously described. Digested peptides were desalted using Phenomenex Strata-X polymeric reverse phase extraction cartridges using the following protocol. Cartridges were conditioned with 1 mL 100% acetonitrile, 1 mL 80% acetonitrile/0.5% AA, and 1 mL 0.1% TFA. Peptides were then loaded on to the cartridge at a reduced flow rate and desalted with 5 mL 0.1% TFA followed by 1 mL 0.5% AA. Desalted peptides were eluted using 1 mL 40% acetonitrile/0.5% AA followed by 1 mL 80% acetonitrile/0.5% AA and lyophilized. Digested peptides were quantified using the Pierce™ Quantitative Colorimetric Peptide Assay and […] was aliquoted from each for total protein analysis while the remaining peptide was lyophilized and retained for acetyl-peptide enrichment.
# Acetyl-peptide Enrichment: Acetyl-peptides were enriched using the PTMScan® Acetyl-Lysine Motif [Ac-K] Kit according to manufacturer instructions. […]
# [6] = target: 6xHis-p300-BRD (active motif #31372) (UniProt Q09472); assay: AlphaScreen, GST-FKBP12^F36V and 6xHis-p300-BRD with a titration of the small molecule AceTAG-1; bell-shaped curve
# Sequence of 6xHis-p300-BRD (active motif #31372) (Q09472 1040-1161 limits assumed): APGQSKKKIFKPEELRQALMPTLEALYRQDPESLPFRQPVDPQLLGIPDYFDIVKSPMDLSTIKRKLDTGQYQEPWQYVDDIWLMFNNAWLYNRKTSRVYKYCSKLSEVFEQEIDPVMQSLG
compound,measurement,setting,value
"CNC(=O)Nc1ccc2c(c1)CC[C@@]21OC(=O)N(CC(=O)N(Cc2ccc(F)cc2)[C@@H](C)C(F)(F)F)C1=O [A485, reference compound]",effect of co-treatment on AceTAG-1 induced p21 expression,[1],blocked
"CC[C@H](C(=O)N1CCCC[C@H]1C(=O)O[C@H](CCc1ccc(OC)c(OC)c1)c1cccc(OCC(=O)NCCOCCOCCOCCC(=O)NCCOc2ccc(CCc3nc4cc(-c5c(C)noc5C)ccc4n3CCN3CCOCC3)cc2)c1)c1cc(OC)c(OC)c(OC)c1 [AceTAG-2, (R)-3-(3,4-dimethoxyphenyl)-1-(3-((18-(4-(2-(5-(3,5-dimethylisoxazol-4-yl)-1-(2-morpholinoethyl)-1H-benzo[d]imidazol-2-yl)ethyl)phenoxy)-2,15-dioxo-6,9,12-trioxa-3,16-diazaoctadecyl)oxy)phenyl)propyl (S)-1-((S)-2-(3,4,5-trimethoxyphenyl)butanoyl)piperidine-2-carboxylate]",acetylation of H3.3,[2],significant acetylation of H3.3
"CC[C@H](C(=O)N1CCCC[C@H]1C(=O)O[C@H](CCc1ccc(OC)c(OC)c1)c1cccc(OCC(=O)NCCCCCCCC(=O)NCCOc2ccc(CCc3nc4cc(-c5c(C)noc5C)ccc4n3CCN3CCOCC3)cc2)c1)c1cc(OC)c(OC)c(OC)c1 [AceTAG-3, (R)-3-(3,4-dimethoxyphenyl)-1-(3-(2-((8-((2-(4-(2-(5-(3,5-dimethylisoxazol-4-yl)-1-(2-morpholinoethyl)-1H-benzo[d]imidazol-2-yl)ethyl)phenoxy)ethyl)amino)-8-oxooctyl)amino)-2-oxoethoxy)phenyl)propyl (S)-1-((S)-2-(3,4,5-trimethoxyphenyl)butanoyl)piperidine-2-carboxylate]",acetylation of H3.3,[2],significant acetylation of H3.3
CC[C@H](C(=O)N1CCCC[C@H]1C(=O)OC(CCc1ccc(OC)c(OC)c1)c1cccc(OCC(=O)NCCCCCCCC(=O)NCCOc2ccc(CCc3nc4cc(-c5c(C)noc5C)ccc4n3CCN3CCOCC3)cc2)c1)c1cc(OC)c(OC)c(OC)c1 (some centres unmarked) [AceTAG-4],acetylation of H3.3,[2],significant acetylation of H3.3
"CCCNC(=O)COc1cccc([C@@H](CCc2ccc(OC)c(OC)c2)OC(=O)[C@@H]2CCCCN2C(=O)[C@@H](CC)c2cc(OC)c(OC)c(OC)c2)c1 [FKBP-c, (R)-3-(3,4-dimethoxyphenyl)-1-(3-(2-oxo-2-(propylamino)ethoxy)phenyl)propyl (S)-1-((S)-2-(3,4,5-trimethoxyphenyl)butanoyl)piperidine-2-carboxylate]",effect of co-treatment on AceTAG-1 induced RelA acetylation,[3],blockade of induced acetylation
same,effect of co-treatment on AceTAG-1 induced acetylation of H3.3-FKBP12^F36V,"[2]; 625 nM AceTAG-1 with 50 μM FKBP ligand or 1 μM A485, 2 hr, FIG. 4D",blocked
same,effect of co-treatment on AceTAG-1 induced p53 acetylation,[4],blockade of induced acetylation
same,effect of co-treatment on AceTAG-1 induced p21 expression,[1],blocked
same,p21 expression level with ligand alone,"[1]; 3 μM, compared to 3 μM AceTAG-1, FIG. 7E",neither p300 nor FKBP ligand alone increases p21 expression level
"O=C(CCCCCCC(=O)Nc1ccccc1)NO [SAHA, Vorinostat, reference compound]",number of proteins with increased acetylation relative to DMSO,[5],~30 proteins
GST-FKBP12^F36V (from UniProt P62942 2-108),AceTAG-1 concentration at maximum ternary complex formation,[6],1 µM
